Patent US20100010034A1, “CRTH2 ANTAGONISTS” (priority 2006, published 2010)

Tests used:
[1] = target: T1, CRTH2 receptor (Homo sapiens, UniProt Q9Y5Y4); experiment: CRTH2 Radioligand Binding assay ([3H]-PGD2 displacement, SPA); set-up: expressed in transfected cells; host or cells: HEK cell membranes; settings: HEK cell membranes expressing the CRTH2 receptor, 1 nM [3H]-PGD2; Ki from IC50 by Cheng-Prusoff
T1 sequence (Q9Y5Y4 1-395): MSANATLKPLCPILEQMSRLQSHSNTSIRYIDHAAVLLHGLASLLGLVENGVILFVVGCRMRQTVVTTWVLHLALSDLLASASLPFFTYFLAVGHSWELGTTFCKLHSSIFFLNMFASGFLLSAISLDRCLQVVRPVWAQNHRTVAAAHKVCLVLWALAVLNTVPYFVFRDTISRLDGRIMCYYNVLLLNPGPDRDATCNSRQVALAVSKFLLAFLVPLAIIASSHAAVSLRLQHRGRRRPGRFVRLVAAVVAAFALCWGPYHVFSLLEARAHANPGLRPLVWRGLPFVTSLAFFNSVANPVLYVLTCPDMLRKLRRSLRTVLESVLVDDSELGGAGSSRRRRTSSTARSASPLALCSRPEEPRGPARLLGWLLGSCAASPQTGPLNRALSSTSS
Method: Radioligand Binding Assay
The receptor binding assay is performed in a final volume of 200 μL binding buffer [10 mM BES (pH 7.4), 1 mM EDTA, 10 mM manganese chloride, 0.01% BSA] and 1 nM [^3H]-PGD2 (Amersham Biosciences UK Ltd). Ligands are added in assay buffer containing a constant amount of DMSO (1% by volume). Total binding is determined using 1% by volume of DMSO in assay buffer and non-specific binding is determined using 10 μM of unlabeled PGD2 (Sigma). Human embryonic kidney (HEK) cell membranes (3.5 μg) expressing the CRTH2 receptor are incubated with 1.5 mg wheatgerm agglutinin SPA beads and 1 nM [^3H]-PGD2 (Amersham Biosciences UK Ltd) and the mixture incubated for 3 hours at room temperature. Bound [^3H]-PGD2 is detected using a Microbeta TRILUX liquid scintillation counter (Perkin Elmer). Compound IC50 value is determined using a 6-point dose response curve in duplicate with a semi-log compound dilution series. IC50 calculations are performed using Excel and XLfit (Microsoft), and this value is used to determine a Ki value for the test compound using the Cheng-Prusoff equation.

[2] = target: T1, CRTH2 receptor; experiment: Calcium mobilisation (flux) functional assay; format: cell-based; set-up: expressed in transfected cells; settings: CHO-K1 cells co-expressing CRTH2 receptor and Gα16; PGD2 agonist at EC80
Method: Calcium Mobilisation (Flux) Assay
Stable CHO-K1 cells co-expressing the CRTH2 receptor and the G-protein Gα16 are seeded (40,000 cells per well in a plating volume of 75 μL in F-12 Hams supplemented with 1% foetal bovine serum) into collagen-coated 96-well plates 24 hours prior to the assay. The cells are then loaded with a fluorescence-imaging plate reader (FLIPR) calcium kit dye (Calcium 3 kit, Molecular Devices Ltd) containing 5 mM final concentration of probenecid and incubated at 37° C. for 1 hour in a 5 % CO2 atmosphere. The fluorescence emission caused by intracellular calcium mobilization elicited by the PGD2 at the CRTH2 receptor is determined with a FLEXstation benchtop scanning and integrated fluid transfer workstation (Molecular Devices Ltd). To detect antagonists and determine compound IC50, compounds are pre-incubated at varying concentrations with the loaded cells for 15 minutes at 37° C., 5 % CO2, prior to the addition of the agonist at its EC80 value. Compounds and agonist are added in Hanks balanced salt solution containing 20 mM HEPES and 0.1% BSA). The fractional response values for each well are calculated by subtracting the basal response from the peak response. Results are calculated as the mean of triplicate wells using Excel and XLfit (Microsoft).

[3] = rats, exogenously applied agonist (Shirashi et al 2005); cited from earlier work

| Structure (SMILES) | Ki [1] | IC50 [2] | pulmonary eosinophilia [3] |
| --- | --- | --- | --- |
| CCS(=O)(=O)c1ccc(Sc2c(C)c(CC(=O)O)c3ccc(F)cn23)cc1 [Example 5, [3-(4-ethanesulfonylphenylsulfanyl)+fluoro-2-methylindolizin-1-yl]acetic acid] | 0.8 nM | 8.9 nM |  |
| Cc1c([C@@H](C)C(=O)O)c2ccc(F)cn2c1Sc1ccc(S(C)(=O)=O)cc1 [Example 4, (R)-2-[6-fluoro-3-(4-methanesulfonylphenylsulfanyl)-2-methylindolizin-1-yl]propionic acid] | 29 nM |  |  |
| Cc1c(CC(=O)O)c2ccc(F)cn2c1Sc1ccc(S(C)(=O)=O)cc1F [Example 2, [6-fluoro-3-(2-fluoro-4-methanesulfonylphenylsulfanyl)-2-methylindolizin-1-yl]acetic acid] | 0.2 nM | 6.6 nM |  |
| Cc1c(CC(=O)O)c2ccc(F)cn2c1Sc1ccc(S(C)(=O)=O)cc1C(F)(F)F [Example 3, [6-fluoro-3-(4-methanesulfonyl-2-trifluoromethylphenylsulfanyl)-2-methylindolizin-1-yl]acetic acid] | 0.9 nM | 11 nM |  |
| Cc1c(CC(=O)O)c2ccc(F)cn2c1Sc1ccc(Cl)cc1Cl [Example 1, [3-(2,4dichlorophenylsulfanyl)-6-fluoro-2-methylindolizin-1-yl]acetic acid] | 27 nM |  |  |
| CCS(=O)(=O)Nc1ccc(S(=O)(=O)c2c(C)c(CC(=O)O)c3ccc(F)cn23)cc1 [Example 7] | 47 nM |  |  |
| Cc1c([C@H](C)C(=O)O)c2ccc(F)cn2c1Sc1ccc(S(C)(=O)=O)cc1 [Example 6, (S)-2-[6-fluoro-3-(4-methanesulfonylphenylsulfanyl)-2-methylindolizin-1-yl]propionic acid] | 57 nM |  |  |
| O=C(O)CCC/C=C\C[C@@H]1[C@@H](/C=C/[C@@H](O)COc2ccc(I)cc2)[C@H]2CC[C@@H]1O2 [I-BOP] |  |  | no effect |
| Cc1c(CC(=O)O)c2cc(Cl)c(F)cn2c1Sc1ccc(S(C)(=O)=O)cc1 [Example 8, [7-chloro-6-fluoro-3-(4-methanesulfonylphenylsulfanyl)-2-methylindolizin-1-yl]acetic acid] | 0.4 nM |  |  |
| O=C(O)CCCCCCC1C(=O)NC(=O)N1CCC(O)C1CCCCC1 (stereo not drawn) [BW 245C] |  |  | no effect |

Now from value to compound, other results behind:

| Ki [1] | IC50 [2] | Structure (SMILES) | pulmonary eosinophilia [3] |
| --- | --- | --- | --- |
| 1.7 nM |  | Cc1c(CC(=O)O)c2ccc(C#N)cn2c1Cc1ccc(S(C)(=O)=O)cc1 [Example 10, [6-cyano-3-(4-methanesulfonylbenzyl)-2-methylindolizin-1-yl]acetic acid] |  |
| 26 nM |  | Cc1c(CC(=O)O)c2cc(C#N)ccn2c1Cc1ccc(Cl)cc1 [Example 11, [3-(4-chlorobenzyl)-7-cyano-2-methylindolizin-1-yl]acetic acid] |  |
| 7.2 nM |  | Cc1c(CC(=O)O)c2ccc(C#N)cn2c1Cc1ccc2cc(F)ccc2n1 [Example 12, [6-cyano-3-(6-fluoroquinolin-2-ylmethyl)-2-methylindolizin-1-yl]acetic acid] |  |
| 2.9 nM |  | Cc1c(CC(=O)O)c2cc(C#N)ccn2c1Sc1ccc(S(C)(=O)=O)cc1Cl [Example 9, [3-(2-chloro-4-methanesulfonylphenylsulfanyl)-7-cyano-2-methylindolizin-1-yl]acetic acid] |  |
| 44 nM |  | COc1ccc(Sc2c(C)c(CC(=O)O)c3ccc(F)cn23)cc1 [Example 13, [6-fluoro-3-(4-methoxyphenylsulfanyl)-2-methylindolizin-1-yl]acetic acid] |  |
| 23 nM |  | COc1ccc(Sc2c(C)c(CC(=O)O)c3cc(Cl)c(F)cn23)cc1 [Example 14, [7-chloro-6-fluoro-3-(4-methoxyphenylsulfanyl)-2-methylindolizin-1-yl]acetic acid] |  |
| 0.6 nM | 22 nM | Cc1c(CC(=O)O)c2ccc(F)cn2c1Sc1ccc(S(=O)(=O)NC2CC2)cc1 [Example 16, [3-(4-cyclopropylsulfamoylphenylsulfanyl)-6-fluoro-2-methylindolizin-1-yl]acetic acid] |  |
